Data reported in patent US20070258912A1, “Use of Fluorescent Whitening Agents as Antimicrobials” (priority 2004, published 2007).
Where two headings read alike, the source gives them in different places.

Experiments:
Type in all cases: cell-based
[1] = system: Corynebacterium minutissimum; assay: MIC in the agar incorporation test; conditions: read-out: MIC Corynebacterium minutissimum
Staphylococcus aureus [2] = assay: MIC in the agar incorporation test
Protocol: (§1) Determination of Minimum Inhibitory Concentration (MIC Values) in the Agar Incorporation Test
(§2) 1% stock solutions of the substances are prepared in an appropriate solvent and diluted in serial dilutions 1:2 (to yield end concentrations in the agar of 500-1.9 ppm). 0.3 ml of each dilution step is mixed with 15 ml of nutrient medium while the latter is still liquid. After the nutrient medium has solidified, 10 μl of each test strain in 0.85% NaCl solution are spotted onto the agar medium.
(§3) The plates are incubated at 37° C. for 24 hours and then the highest dilution (lowest concentration) of the test substance at which growth is no longer observable is determined.
(§4) Test Organisms: Staphylococcus aureus ATCC 6583 Staphylococcus epidermidis ATCC 12228 Corynebacterium xerosis ATCC 373 Propionibacterium acnes ATCC Escherichia coli ATCC 10536 Salmonella choleraesuis ATCC Klebsiella pneumoniae ATCC *Candida albicans ATCC 10231
(§5) *Aspergillus niger ATCC 6275

Staphylococcus epidermis = assay: MIC in the agar incorporation test
Protocol: as §1, §2, §3, §4, §5

Propionibacterium acnes = assay: MIC in the agar incorporation test; conditions: Cutibacterium acnes, read-out: MIC Propionibacterium acnes
Protocol: as §1, §2, §3, §4, §5

Escherichia coli [3] = assay: MIC in the agar incorporation test
Protocol: as §1, §2, §3, §4, §5

Corynebacterium xerosis [4] = assay: MIC in the agar incorporation test
Protocol: as §1, §2, §3, §4, §5

Streptococcus gordonii = assay: MIC against oral microorganisms via broth dilution
Protocol: (§6) Determination of the Minimum Inhibition Concentration (MIC Value) Against Different Oral Microorganisms Via Broth Dilution
(§7) 1500 ppm stock solutions of the substances are prepared in ethanol and pipetted into the growth medium to yield concentrations between 0.94 and 15 ppm. Bacteria are taken from blood agar plates with cotton swabs and adjusted in the appropriate growth medium to yield an optical density corresponding to McFarland 0.5. This suspension is directly used in the case of F. nucleatum and P. nigrescens. For the other strains, the suspension is diluted 1:20. 0.1 ml of these bacterial suspensions are added to 2 ml of the substance solutions. After the incubation time, the tubes are assessed for growth (turbidity).
(§8) Test Organisms: *Actinobacillus actinomycetemcomitans ATCC 43718 *Stretococcus gordonii ATCC 10558 *Streptococcus mutans ATCC 33402 Actinomyces viscosus ATCC 43146 Fusobacterium nucleatum subsp. polymorphum ATCC 10953 Porphyromonas gingivalis ATCC 33277
(§9) Prevotella nigrescens ATCC 33563

Porphyromnas gingivalis = assay: MIC against oral microorganisms via broth dilution; conditions: read-out: MIC Porphyromnas gingivalis
Protocol: as §6, §7, §8, §9

Prevotella nigrescens = assay: MIC against oral microorganisms via broth dilution
Protocol: as §6, §7, §8, §9

Streptococcus mutans = assay: MIC against oral microorganisms via broth dilution
Protocol: as §6, §7, §8, §9

Actinomyces viscosus [5] = assay: MIC against oral microorganisms via broth dilution
Protocol: as §6, §7, §8, §9

Salmonella choleraesuis = assay: MIC in the agar incorporation test; conditions: Salmonella enterica, Mueller Hinton agar, 24 hours at 37° C.
Protocol: as §1, §2, §3, §4, §5

Klebsiella pneumoniae = assay: MIC in the agar incorporation test; conditions: Mueller Hinton agar, 24 hours at 37° C.
Protocol: as §1, §2, §3, §4, §5

[6] = system: Fusobacterium nucleatum subsp. polymorphum; assay: MIC against oral microorganisms via broth dilution
Protocol: as §6, §7, §8, §9

Staphylococcus aureus [7] = assay: Microbicidal activity (suspension test, plate count); conditions: ATCC 6538
Protocol: (§10) Determination of Microbicidal Activity
(§11) 1 g stock solution with an appropriate concentration of test products are mixed with 8 g water and then inoculated with 1 ml of the selected test organisms. After a given contact period, aliquots are taken, inactivated and diluted. The number of surviving bacteria per ml incubation assay is determined by plate count. Proper inactivation by the inactivating medium used was checked each time.
(§12) Diluent: tryptone water for microorganisms
(§13) • (0.1% tryptone (Oxoid), 0.85% NaCl, deion. water) • deion. water for test substances • inactivating medium for detection of surviving microorganisms Growth medium: casein soybean peptone agar Inactivating Medium: tryptic soy broth special • (10% w/w Tween 80, 3% w/w Lecithine, 0.1% w/w L-Histidine, • 0.055% w/w Sodium thiosulfate) Test organisms: Staphylococcus aureus ATCC 6538 • Escherichia coli ATCC 10536 • Actinomyces viscosus ATCC 43146 • Corynebacterium xerosis ATCC 373 Test concentration: 120 ppm and 1200 ppm Contact times: 5 and 30 minutes at 22° C.
(§14) Incubation time: 24 h at 37° C.

Actinomyces viscosus [8] = assay: as above; conditions: ATCC 43146
Protocol: as §10, §11, §12, §13, §14

Escherichia coli [9] = assay: as above; conditions: ATCC 10536
Protocol: as §10, §11, §12, §13, §14

Corynebacterium xerosis [10] = assay: as above; conditions: ATCC 373
Protocol: as §10, §11, §12, §13, §14

[11] = ATCC6583, 24 h, read-out: MIC Staphylococcus aureus
[12] = ATCC12228, 24 h, read-out: MIC Staphylococcus epidermis
[13] = ATCC373, 24 h, read-out: MIC Corynebacterium xerosis
[14] = ATCC10558, 24 h, read-out: MIC Streptococcus gordonii
[15] = ATCC33563, read-out: MIC Prevotella nigrescens
[16] = ATCC33402, 24 h, read-out: MIC Streptococcus mutans
[17] = ATCC43146, read-out: MIC Actinomyces viscosus
[18] = agar incorporation, Mueller Hinton agar, 24 hours at 37° C.
[19] = ATCC6583, agar incorporation, Mueller Hinton agar, 24 hours at 37° C., ATCC 6583, read-out: MIC Staphylococcus aureus
[20] = ATCC12228, agar incorporation, Mueller Hinton agar, 24 hours at 37° C., ATCC 12228, read-out: MIC Staphylococcus epidermis
[21] = ATCC373, agar incorporation, Mueller Hinton agar, 24 hours at 37° C., ATCC 373, read-out: MIC Corynebacterium xerosis
[22] = ATCC33563, broth dilution 0.94-15 ppm, Columbia bouillon, 7-10 days at 37° C. anaerobically, ATCC 33563, read-out: MIC Prevotella nigrescens
[23] = ATCC43146, broth dilution 0.94-15 ppm, 7-10 days at 37° C. anaerobically, ATCC 43146, read-out: MIC Actinomyces viscosus
[24] = 120 ppm, 5 min contact at 22° C.
[25] = 120 ppm, 30 min contact at 22° C.
[26] = 1200 ppm, 5 min contact at 22° C.
[27] = 1200 ppm, 30 min contact at 22° C.

| SMILES | MIC ([1]; 24 h) | MIC (Staphylococcus aureus [2]; [11]) | MIC (Staphylococcus epidermis; [12]) | MIC (Propionibacterium acnes; 24 h) | MIC (Corynebacterium xerosis [4]; [13]) | MIC (Streptococcus gordonii; [14]) | MIC (Porphyromnas gingivalis) | MIC (Prevotella nigrescens; [15]) | MIC (Streptococcus mutans; [16]) | MIC (Actinomyces viscosus [5]; [17]) | MIC [1, 18] | MIC (Staphylococcus aureus [2]; [19]) | MIC (Salmonella choleraesuis) | MIC (Staphylococcus epidermis; [20]) | MIC (Propionibacterium acnes; [18]) | MIC (Corynebacterium xerosis [4]; [21]) | MIC (Prevotella nigrescens; [22]) | MIC (Actinomyces viscosus [5]; [23]) | other results |
| --- | --- | --- | --- | --- | --- | --- | --- | --- | --- | --- | --- | --- | --- | --- | --- | --- | --- | --- | --- |
| C[n+]1ccc(Oc2ccccc2/C=C/c2ccc(-c3ccc(/C=C/c4ccccc4Oc4cc[n+](C)cc4)cc3)cc2)cc1 [formula 34] | 3.1 µg/mL | 3.1 µg/mL | 3.1 µg/mL | 1.6 µg/mL | 3.1 µg/mL | 15 µg/mL | 7.5 µg/mL | 3.8 µg/mL | 1.9 µg/mL | 1.9 µg/mL |  |  |  |  |  |  |  |  | MIC (Escherichia coli [3]; ATCC10536, 24 h, read-out: MIC Escherichia coli): 50 µg/mL |
| COc1cccc(/C=C/c2ccc(/C=C/c3cccc(OC)c3OCCCN(C)C)cc2)c1OCCCN(C)C [formula 27] |  |  |  |  |  |  |  |  |  |  | 3.1 µg/mL | 12.5 µg/mL | 200 µg/mL | 12.5 µg/mL | 6.3 µg/mL | 3.1 µg/mL | 3.8 µg/mL | 7.5 µg/mL | MIC (Klebsiella pneumoniae): 25 µg/mL; MIC (Streptococcus gordonii; ATCC10558, broth dilution 0.94-15 ppm, 24 h aerobically with 10% CO2, ATCC 10558, read-out: MIC Streptococcus gordonii): 15 µg/mL; MIC (Porphyromnas gingivalis; broth dilution 0.94-15 ppm, Columbia bouillon, 7-10 days at 37° C. anaerobically, ATCC 33277): 7.5 µg/mL; MIC (Streptococcus mutans; ATCC33402, broth dilution 0.94-15 ppm, 24 h aerobically with 10% CO2, ATCC 33402, read-out: MIC Streptococcus mutans): 15 µg/mL; MIC ([6]; ATCC10953, broth dilution 0.94-15 ppm, 7-10 days at 37° C. anaerobically, ATCC 10953, read-out: MIC Fusobacterium nucleatum subsp. polymorphum): 7.5 µg/mL |
| CCN(CC)CCOc1cccc(/C=C/c2ccc(/C=C/c3cccc(OCCN(CC)CC)c3OCCN(CC)CC)cc2)c1OCCN(CC)CC [formula 25] |  |  |  |  |  |  |  |  |  |  | 15.6 µg/mL | 62.5 µg/mL | 125 µg/mL | 62.5 µg/mL | 62.5 µg/mL | 15.6 µg/mL | 15 µg/mL | 15 µg/mL | Microbicidal activity Staphylococcus aureus 120 ppm/5 min (Staphylococcus aureus [7]; [24]): 1 log reduction; Microbicidal activity Staphylococcus aureus 120 ppm/30 min (Staphylococcus aureus [7]; [25]): 1 log reduction; Microbicidal activity Staphylococcus aureus 1200 ppm/5 min (Staphylococcus aureus [7]; [26]): 2.9 log reduction; Microbicidal activity Staphylococcus aureus 1200 ppm/30 min (Staphylococcus aureus [7]; [27]): 2.8 log reduction; Microbicidal activity Actinomyces viscosus 120 ppm/5 min (Actinomyces viscosus [8]; [24]): 2.9 log reductions; Microbicidal activity Actinomyces viscosus 120 ppm/30 min (Actinomyces viscosus [8]; [25]): 2.1 log reductions; Microbicidal activity Actinomyces viscosus 1200 ppm/5 min (Actinomyces viscosus [8]; [26]): 4 log reductions; Microbicidal activity Actinomyces viscosus 1200 ppm/30 min (Actinomyces viscosus [8]; [27]): 4 log reductions; Microbicidal activity Escherichia coli 120 ppm/5 min (Escherichia coli [9]; [24]): 5 log reduction; Microbicidal activity Escherichia coli 120 ppm/30 min (Escherichia coli [9]; [25]): 5 log reduction; Microbicidal activity Escherichia coli 1200 ppm/5 min (Escherichia coli [9]; [26]): 5 log reduction; Microbicidal activity Escherichia coli 1200 ppm/30 min (Escherichia coli [9]; [27]): 5 log reduction; Microbicidal activity Corynebacterium xerosis 120 ppm/5 min (Corynebacterium xerosis [10]; [24]): 5 log reductions; Microbicidal activity Corynebacterium xerosis 120 ppm/30 min (Corynebacterium xerosis [10]; [25]): 5 log reductions; Microbicidal activity Corynebacterium xerosis 1200 ppm/5 min (Corynebacterium xerosis [10]; [26]): 5 log reductions; Microbicidal activity Corynebacterium xerosis 1200 ppm/30 min (Corynebacterium xerosis [10]; [27]): 5 log reductions; MIC (Escherichia coli [3]; ATCC10536, agar incorporation, Mueller Hinton agar, 24 hours at 37° C., ATCC 10536, read-out: MIC Escherichia coli): 125 µg/mL |
| COc1cccc(/C=C/c2ccc(-c3ccc(/C=C/c4cccc(OC)c4OCCCN(C)C)cc3)cc2)c1OCCCN(C)C [formula 31] | 15.6 µg/mL | 62.5 µg/mL | 125 µg/mL | 7.8 µg/mL | 125 µg/mL | 11.2 µg/mL | 1.9 µg/mL | 3.75 µg/mL | 7.5 µg/mL | 3.8 µg/mL |  |  |  |  |  |  |  |  | MIC ([6]; ATCC10953, read-out: MIC Fusobacterium nucleatum subsp. polymorphum): 15 µg/mL |
